Results as given in patent US11866518B2, “Bicyclic peptide ligands specific for TSLP” (BicycleTx Limited, priority 2020, dated 2024).
*1 amine or outer side, *2 acyl side, *3 side chain or, on linkers, in order; H or OH if unused. Where a SMILES comes first, the peptide text is derived from it. Bridges are numbered along the chain shown (N, C = ends). TATA = O=C(CC[*:1])N1CN(C(=O)CC[*:2])CN(C(=O)CC[*:3])C1

Molecular target: T1, TSLP (Homo sapiens, UniProt Q969D9)
Assay: Human TSLP Surface Plasmon Resonance (SPR) binding assay
Parameters: The resulting construct spCD33-6×HN-TEV-hTSLP(29-159)-Avi; 6xHN tag with TEV site (N, cleaved yes); made in house; host or cells: Expi293F cells
Conditions: biotinylated human TSLP immobilized on streptavidin chip; 20° C.; steady-state or kinetic 1:1 fit; read-out: hTSLP SPR Kd

T1 sequence (Q969D9 29-159): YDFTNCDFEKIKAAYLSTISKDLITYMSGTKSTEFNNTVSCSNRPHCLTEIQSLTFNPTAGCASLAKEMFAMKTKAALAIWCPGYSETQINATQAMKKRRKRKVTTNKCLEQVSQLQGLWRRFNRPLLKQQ

| SMILES | Kd |
| --- | --- |
| CC(=O)N[C@H]1CSCCC(=O)N2CN3CN(C2)C(=O)CCSC[C@H](NC(=O)[C@H](CC(=O)O)NC(=O)[C@H](CCC(=O)O)NC(=O)[C@H](CC(C)C)NC(=O)[C@H](Cc2c[nH]c4ccccc24)NC(=O)[C@H](CCC(N)=O)NC1=O)C(=O)N[C@@H](Cc1c[nH]c2ccccc12)C(=O)N[C@@H](CCCNC(=N)N)C(=O)NCC(=O)N[C@@H](Cc1ccc(Cl)c(Cl)c1)C(=O)N[C@H](C(N)=O)CSCCC3=O [Example 11, Ac-(SEQ ID NO: 9)] | 5.8 nM |
| CC(=O)N[C@@H](C)C(=O)N[C@H]1CSCCC(=O)N2CN3CN(C2)C(=O)CCSC[C@@H](C(=O)N2CCC[C@H]2C(=O)N[C@@H](CC(C)C)C(=O)N[C@@H](CC(=O)O)C(N)=O)NC(=O)[C@H](Cc2ccccc2)NC(=O)CNC(=O)[C@H](CCCNC(=N)N)NC(=O)[C@H](Cc2c[nH]c4ccccc24)NC(=O)[C@H](CSCCC3=O)NC(=O)[C@H](CC(=O)O)NC(=O)[C@H](CCC(=O)O)NC(=O)[C@H](CC(C)C)NC(=O)[C@H](Cc2c[nH]c3ccccc23)NC(=O)[C@H](CCC(N)=O)NC1=O [Example 53, Ac-A-(SEQ ID NO: 38)-PLD] | 43 nM |

Molecular target: T1, TSLP
Assay: Human peripheral blood mononuclear cell assay (TSLP-induced CCL17/TARC)
Type: cell-based
Parameters: host or cells: added to human PBMCs from healthy donors
Conditions: human PBMCs; 10 μM peptide; 50 pM TSLP; 24 hours; read-out: CCL17 % Inhibition @ 10 μM, 50 pM TSLP
Procedure: Human peripheral blood mononuclear cells (PMBCs) were obtained from heparinized whole blood (healthy donors) by density gradient centrifugation using Lymphoprep (StemCell Technologies, Vancouver, BC) according to the manufacturers instructions. The PBMCs were washed twice with PBS containing 2 mM EDTA and 2% fetal calf serum (FCS) and reconstituted in RPMI containing 10% FCS and 2% PenStrep at a final concentration of 3 million cells/mL. This cell suspension (100 μL) was aliquoted into the wells of a 96-well flat bottom tissue culture plate. 5 μL of bicycle peptide or vehicle (0.1% DMSO in complete medium) was then added and mixed with 5 μL of TSLPvehicle (complete medium). […] The plate was incubated for 30 minutes are rt. 10 μL of this mixture was added to cells and the plate was incubated for 24 hours in a 10% CO2, humidified incubator at 37° C. The plate was centrifuged at 300×g for 5 min and the collected supernatants frozen at −20° C. for subsequent CCL17/TARC analysis.
CCL17/TARC was determined by MSD (MesoScale Discovery, Maryland, USA) according to the manufacturer's instructions.

| SMILES | inhibition at 10 µM |
| --- | --- |
| CC(=O)N[C@H]1CSCCC(=O)N2CN3CN(C2)C(=O)CCSC[C@H](NC(=O)[C@H](CC(=O)O)NC(=O)[C@H](CCC(=O)O)NC(=O)[C@H](CC(C)C)NC(=O)[C@H](Cc2c[nH]c4ccccc24)NC(=O)[C@H](CCC(N)=O)NC1=O)C(=O)N[C@@H](Cc1c[nH]c2ccccc12)C(=O)N[C@@H](CCCNC(=N)N)C(=O)NCC(=O)N[C@@H](Cc1ccc(F)cc1)C(=O)N[C@H](C(N)=O)CSCCC3=O [Example 17, Ac-(SEQ ID NO: 15)] | 1% |
| CC(=O)N[C@H]1CSCCC(=O)N2CN3CN(C2)C(=O)CCSC[C@H](NC(=O)[C@H](CC(=O)O)NC(=O)[C@H](CCC(=O)O)NC(=O)[C@H](CC(C)C)NC(=O)[C@H](Cc2c[nH]c4ccccc24)NC(=O)[C@H](CCC(N)=O)NC1=O)C(=O)N[C@@H](Cc1c[nH]c2ccccc12)C(=O)N[C@@H](CCCNC(=N)N)C(=O)NCC(=O)N[C@@H](Cc1ccc(F)c(F)c1)C(=O)N[C@H](C(N)=O)CSCCC3=O [Example 22, Ac-(SEQ ID NO: 20)] | 41% |
| CSCC[C@H](NC(=O)[C@H](CC(=O)O)NC(=O)CNC(=O)[C@H](CC(=O)O)NC(=O)[C@H](C)NC(=O)[C@@H]1CSCCC(=O)N2CN3CN(C2)C(=O)CCSC[C@H](NC(=O)[C@H](CC(=O)O)NC(=O)[C@H](CCC(=O)O)NC(=O)[C@H](CC(C)C)NC(=O)[C@H](Cc2c[nH]c4ccccc24)NC(=O)[C@H](CCC(N)=O)NC(=O)[C@@H](NC(=O)[C@H](C)N)CSCCC3=O)C(=O)N[C@@H](Cc2c[nH]c3ccccc23)C(=O)N[C@@H](CCCNC(=N)N)C(=O)NCC(=O)N[C@@H](Cc2ccccc2)C(=O)N1)C(=O)N[C@@H](CC(C)C)C(N)=O [Example 42, A-(SEQ ID NO: 38)-ADGDML] | < 20% |

Same assay, conditions: read-out: CCL17 % Inhibition @ 10 μM, […] TSLP

| SMILES | inhibition at 10 µM |
| --- | --- |
| CC(=O)N[C@H]1CSCCC(=O)N2CN3CN(C2)C(=O)CCSC[C@H](NC(=O)[C@H](CC(=O)O)NC(=O)[C@H](CCC(=O)O)NC(=O)[C@H](CC(C)C)NC(=O)[C@H](Cc2c[nH]c4ccccc24)NC(=O)[C@H](CCC(N)=O)NC1=O)C(=O)N[C@@H](Cc1c[nH]c2ccccc12)C(=O)N[C@@H](CCCNC(=N)N)C(=O)NCC(=O)N[C@@H](Cc1ccc(Cl)c(Cl)c1)C(=O)N[C@H](C(N)=O)CSCCC3=O [Example 11, Ac-(SEQ ID NO: 9)] | 43% |
| CC(=O)N[C@H]1CSCCC(=O)N2CN3CN(C2)C(=O)CCSC[C@H](NC(=O)[C@H](CC(=O)O)NC(=O)[C@H](CCC(=O)O)NC(=O)[C@H](CC(C)C)NC(=O)[C@H](Cc2c[nH]c4ccccc24)NC(=O)[C@H](CCC(N)=O)NC1=O)C(=O)N[C@@H](Cc1c[nH]c2ccccc12)C(=O)N[C@@H](CCCNC(=N)N)C(=O)NCC(=O)N[C@@H](Cc1ccc(Cl)cc1)C(=O)N[C@H](C(N)=O)CSCCC3=O [Example 14, Ac-(SEQ ID NO: 12)] | 14% |
| CC(=O)N[C@H]1CSCCC(=O)N2CN3CN(C2)C(=O)CCSC[C@H](NC(=O)[C@H](CC(=O)O)NC(=O)[C@H](CCC(=O)O)NC(=O)[C@H](CC(C)C)NC(=O)[C@H](Cc2c[nH]c4ccccc24)NC(=O)[C@H](CCC(N)=O)NC1=O)C(=O)N[C@@H](Cc1c[nH]c2ccccc12)C(=O)N[C@@H](CCCNC(=N)N)C(=O)NCC(=O)N[C@@H](Cc1cccc(Cl)c1)C(=O)N[C@H](C(N)=O)CSCCC3=O [Example 32, Ac-(SEQ ID NO: 29)] | 14% |
| CSCC[C@H](NC(=O)[C@H](CC(=O)O)NC(=O)CNC(=O)[C@H](CC(=O)O)NC(=O)[C@H](C)NC(=O)[C@@H]1CSCCC(=O)N2CN3CN(C2)C(=O)CCSC[C@H](NC(=O)[C@H](CC(=O)O)NC(=O)[C@H](CCC(=O)O)NC(=O)[C@H](CC(C)C)NC(=O)[C@H](Cc2c[nH]c4ccccc24)NC(=O)[C@H](CCC(N)=O)NC(=O)[C@@H](NC(=O)[C@H](C)N)CSCCC3=O)C(=O)N[C@@H](Cc2c[nH]c3ccccc23)C(=O)N[C@@H](CCCNC(=N)N)C(=O)NCC(=O)N[C@@H](Cc2ccccc2)C(=O)N1)C(=O)N[C@@H](CC(C)C)C(N)=O [Example 42, A-(SEQ ID NO: 38)-ADGDML] | 47% |
| CC(=O)N[C@H]1CSCCC(=O)N2CN3CN(C2)C(=O)CCSC[C@H](NC(=O)[C@H](CC(=O)O)NC(=O)[C@H](CCC(=O)O)NC(=O)[C@H](CC(C)(C)C)NC(=O)[C@H](Cc2c[nH]c4ccccc24)NC(=O)[C@H](CCC(N)=O)NC1=O)C(=O)N[C@@H](Cc1c[nH]c2ccccc12)C(=O)N[C@@H](CCCNC(=N)N)C(=O)NCC(=O)N[C@@H](Cc1ccccc1)C(=O)N[C@H](C(N)=O)CSCCC3=O [Example 44, Ac-(SEQ ID NO: 39)] | 52% |
| CC(C)C[C@@H]1NC(=O)[C@H](Cc2c[nH]c3ccccc23)NC(=O)[C@H](CCC(N)=O)NC(=O)[C@@H](NC(=O)[C@H](CCC(=O)O)NC(=O)[C@H](C)NC(=O)[C@H](CO)NC(=O)[C@H](CC(=O)O)NC(=O)[C@@H](NC(=O)CN)[C@@H](C)O)CSCCC(=O)N2CN3CN(C2)C(=O)CCSC[C@H](NC(=O)[C@H](CC(=O)O)NC(=O)[C@H](CCC(=O)O)NC1=O)C(=O)N[C@@H](Cc1c[nH]c2ccccc12)C(=O)N[C@@H](CCCNC(=N)N)C(=O)NCC(=O)N[C@@H](Cc1ccccc1)C(=O)N[C@H](C(=O)N[C@@H](C)C(N)=O)CSCCC3=O [Example 45, GTDSAE-(SEQ ID NO: 38)-A] | 0% |
| CC(=O)N[C@H]1CSCCC(=O)N2CN3CN(C2)C(=O)CCSC[C@H](NC(=O)[C@H](CC(=O)O)NC(=O)[C@H](CCC(=O)O)NC(=O)[C@H](CC(C)C)NC(=O)[C@H](Cc2c[nH]c4ccccc24)NC(=O)[C@H](CCC(N)=O)NC1=O)C(=O)N[C@@H](Cc1c[nH]c2ccccc12)C(=O)N[C@@H](CCCNC(=N)N)C(=O)NCC(=O)N[C@@H](Cc1cccc2ccccc12)C(=O)N[C@H](C(N)=O)CSCCC3=O [Example 47, Ac-(SEQ ID NO: 41)] | -7% |
| CC(=O)N[C@H]1CSCCC(=O)N2CN3CN(C2)C(=O)CCSC[C@H](NC(=O)[C@H](CC(=O)O)NC(=O)[C@H](CCC(=O)O)NC(=O)[C@H](CC(C)C)NC(=O)[C@H](Cc2c[nH]c4ccccc24)NC(=O)[C@H](CCC(N)=O)NC1=O)C(=O)N[C@@H](Cc1c[nH]c2ccccc12)C(=O)N[C@@H](CCCNC(=N)N)C(=O)NCC(=O)N[C@@H](Cc1ccc2ccccc2c1)C(=O)N[C@H](C(N)=O)CSCCC3=O [Example 50, Ac-(SEQ ID NO: 42)] | 33% |
| CC(=O)N[C@@H](C)C(=O)N[C@H]1CSCCC(=O)N2CN3CN(C2)C(=O)CCSC[C@@H](C(=O)N2CCC[C@H]2C(=O)N[C@@H](CC(C)C)C(=O)N[C@@H](CC(=O)O)C(N)=O)NC(=O)[C@H](Cc2ccccc2)NC(=O)CNC(=O)[C@H](CCCNC(=N)N)NC(=O)[C@H](Cc2c[nH]c4ccccc24)NC(=O)[C@H](CSCCC3=O)NC(=O)[C@H](CC(=O)O)NC(=O)[C@H](CCC(=O)O)NC(=O)[C@H](CC(C)C)NC(=O)[C@H](Cc2c[nH]c3ccccc23)NC(=O)[C@H](CCC(N)=O)NC1=O [Example 53, Ac-A-(SEQ ID NO: 38)-PLD] | -2% |
| CSCC[C@H](NC(=O)[C@@H](N)[C@@H](C)O)C(=O)N[C@@H](CCC(=O)O)C(=O)N[C@@H](Cc1ccc(O)cc1)C(=O)N[C@@H](CCCNC(=N)N)C(=O)N[C@@H](CC(=O)O)C(=O)N[C@H]1CSCCC(=O)N2CN3CN(C2)C(=O)CCSC[C@H](NC(=O)[C@H](CC(=O)O)NC(=O)[C@H](CCC(=O)O)NC(=O)[C@H](CC(C)C)NC(=O)[C@H](Cc2c[nH]c4ccccc24)NC(=O)[C@H](CCC(N)=O)NC1=O)C(=O)N[C@@H](Cc1c[nH]c2ccccc12)C(=O)N[C@@H](CCCNC(=N)N)C(=O)NCC(=O)N[C@@H](Cc1ccccc1)C(=O)N[C@H](C(=O)N[C@@H](C)C(N)=O)CSCCC3=O [Example 56, TMEYRD-(SEQ ID NO: 38)-A] | 40% |
| CC(C)C[C@@H]1NC(=O)[C@H](Cc2c[nH]c3ccccc23)NC(=O)[C@H](CCC(N)=O)NC(=O)[C@@H](NC(=O)[C@H](C)N)CSCCC(=O)N2CN3CN(C2)C(=O)CCSC[C@H](NC(=O)[C@H](CC(=O)O)NC(=O)[C@H](CCC(=O)O)NC1=O)C(=O)N[C@@H](Cc1c[nH]c2ccccc12)C(=O)N[C@@H](CCCNC(=N)N)C(=O)NCC(=O)N[C@@H](Cc1ccccc1)C(=O)N[C@H](C(=O)N[C@@H](C)C(N)=O)CSCCC3=O [Example 68, A-(SEQ ID NO: 38)-A] | 33% |
| CC(C)C[C@@H]1NC(=O)[C@H](Cc2c[nH]c3ccccc23)NC(=O)[C@H]([C@@H](C)O)NC(=O)[C@@H](NC(=O)[C@H](C)N)CSCCC(=O)N2CN3CN(C2)C(=O)CCSC[C@H](NC(=O)[C@H](CC(=O)O)NC(=O)[C@H](CC(=O)O)NC1=O)C(=O)N[C@@H](Cc1c[nH]c2ccccc12)C(=O)N[C@@H](CCCNC(=N)N)C(=O)NCC(=O)N[C@@H](Cc1ccccc1)C(=O)N[C@H](C(=O)N[C@@H](C)C(N)=O)CSCCC3=O [Example 76, A-(SEQ ID NO: 57)-A] (H-ACTWLDDCWRGFCA-NH2; linker 2-8-13 via TATA; N-terminus and C-terminus assumed) | 0% |
| CC(=O)N[C@H]1CSCCC(=O)N2CN3CN(C2)C(=O)CCSC[C@H](NC(=O)[C@H](CC(=O)O)NC(=O)[C@H](CCC(=O)O)NC(=O)[C@H](CC(C)C)NC(=O)[C@H](Cc2c[nH]c4ccccc24)NC(=O)[C@H](CCC(N)=O)NC1=O)C(=O)N[C@@H](Cc1c[nH]c2ccccc12)C(=O)N[C@@H](CCCNC(=N)N)C(=O)NCC(=O)N[C@@H](Cc1ccccc1)C(=O)N[C@H](C(N)=O)CSCCC3=O [Example 79, Ac-(SEQ ID NO: 38)] | -18% |
